In ChEMBL document CHEMBL3044899, “Effect of chloro and fluoro groups on the antimicrobial activity of 2,5-disubstituted 4-thiazolidinones: a comparative study” (2012):
Activity calls are given as the source filed them. The rule behind the calls is not given here.

Legend:
Bacillus subtilis [1] = experiment: Antibacterial activity against Bacillus subtilis MTCC 121 at 50 ug/ml by cup plate method; assay type: functional; conditions: read-out: DIZ
Bacillus subtilis [2] = experiment: Antibacterial activity against Bacillus subtilis MTCC 121 at 300 ug/ml by cup plate method; assay type: functional; conditions: read-out: DIZ
Pseudomonas aeruginosa [3] = experiment: Antibacterial activity against Pseudomonas aeruginosa MTCC 2453 by cup-plate method; assay type: functional, organism-based
Staphylococcus aureus [4] = experiment: Antibacterial activity against Staphylococcus aureus MTCC 96 at 200 ug/ml by cup-plate method; assay type: functional; conditions: read-out: DIZ
Bacillus subtilis [5] = experiment: Antibacterial activity against Bacillus subtilis MTCC 121 by cup plate method; assay type: functional, organism-based
Escherichia coli [6] = experiment: Antibacterial activity against Escherichia coli MTCC 739 by cup-plate method; assay type: functional, organism-based
Staphylococcus aureus [7] = experiment: Antibacterial activity against Staphylococcus aureus MTCC 96 by cup-plate method; assay type: functional, organism-based
Pseudomonas aeruginosa [8] = experiment: Antibacterial activity against Pseudomonas aeruginosa MTCC 2453 at 200 ug/ml by cup-plate method; assay type: functional; conditions: read-out: DIZ
Staphylococcus aureus [9] = experiment: Antibacterial activity against Staphylococcus aureus MTCC 96 at 100 ug/ml by cup-plate method; assay type: functional; conditions: read-out: DIZ
Pseudomonas aeruginosa [10] = experiment: Antibacterial activity against Pseudomonas aeruginosa MTCC 2453 at 50 ug/ml by cup-plate method; assay type: functional; conditions: read-out: DIZ
Pseudomonas aeruginosa [11] = experiment: Antibacterial activity against Pseudomonas aeruginosa MTCC 2453 at 300 ug/ml by cup-plate method; assay type: functional; conditions: read-out: DIZ
Bacillus subtilis [12] = experiment: Antibacterial activity against Bacillus subtilis MTCC 121 at 100 ug/ml by cup plate method; assay type: functional; conditions: read-out: DIZ
Candida albicans = experiment: Antifungal activity against Candida albicans MTCC 227 at 50 to 300 ug/ml by cup-plate method; assay type: functional, organism-based
Escherichia coli [13] = experiment: Antibacterial activity against Escherichia coli MTCC 739 at 50 ug/ml by cup-plate method; assay type: functional; conditions: read-out: DIZ
Escherichia coli [14] = experiment: Antibacterial activity against Escherichia coli MTCC 739 at 300 ug/ml by cup-plate method; assay type: functional; conditions: read-out: DIZ
Bacillus subtilis [15] = experiment: Antibacterial activity against Bacillus subtilis MTCC 121 at 200 ug/ml by cup plate method; assay type: functional; conditions: read-out: DIZ
Staphylococcus aureus [16] = experiment: Antibacterial activity against Staphylococcus aureus MTCC 96 at 300 ug/ml by cup-plate method; assay type: functional; conditions: read-out: DIZ
Pseudomonas aeruginosa [17] = experiment: Antibacterial activity against Pseudomonas aeruginosa MTCC 2453 at 100 ug/ml by cup-plate method; assay type: functional; conditions: read-out: DIZ
Escherichia coli [18] = experiment: Antibacterial activity against Escherichia coli MTCC 739 at 100 ug/ml by cup-plate method; assay type: functional; conditions: read-out: DIZ
Escherichia coli [19] = experiment: Antibacterial activity against Escherichia coli MTCC 739 at 200 ug/ml by cup-plate method; assay type: functional; conditions: read-out: DIZ
Staphylococcus aureus [20] = experiment: Antibacterial activity against Staphylococcus aureus MTCC 96 at 50 ug/ml by cup-plate method; assay type: functional; conditions: read-out: DIZ

SMILES	zone of inhibition at 50 µg/mL (Bacillus subtilis [1]) [mm]	zone of inhibition at 300 µg/mL (Bacillus subtilis [2]) [mm]	Activity (Pseudomonas aeruginosa [3])	zone of inhibition at 200 µg/mL (Staphylococcus aureus [4]) [mm]	Activity (Bacillus subtilis [5])	Activity (Escherichia coli [6])	Activity (Staphylococcus aureus [7])	zone of inhibition at 200 µg/mL (Pseudomonas aeruginosa [8]) [mm]	zone of inhibition at 100 µg/mL (Staphylococcus aureus [9]) [mm]	zone of inhibition at 50 µg/mL (Pseudomonas aeruginosa [10]) [mm]	zone of inhibition at 300 µg/mL (Pseudomonas aeruginosa [11]) [mm]	zone of inhibition at 100 µg/mL (Bacillus subtilis [12]) [mm]	Activity (Candida albicans)	zone of inhibition at 50 µg/mL (Escherichia coli [13]) [mm]	zone of inhibition at 300 µg/mL (Escherichia coli [14]) [mm]	zone of inhibition at 200 µg/mL (Bacillus subtilis [15]) [mm]	zone of inhibition at 300 µg/mL (Staphylococcus aureus [16]) [mm]	zone of inhibition at 100 µg/mL (Pseudomonas aeruginosa [17]) [mm]	zone of inhibition at 100 µg/mL (Escherichia coli [18]) [mm]	zone of inhibition at 200 µg/mL (Escherichia coli [19]) [mm]	further results
O=C1N/C(=N\c2cccc(Cl)c2)S/C1=C\c1ccc(Cl)cc1	7	10	Dose-dependent effect	9	Dose-dependent effect	Dose-dependent effect	Dose-dependent effect	8	8	7	8	8	inactive	7	9	10	10	8	9	9	zone of inhibition at 50 µg/mL (Staphylococcus aureus [20]): 7 mm
O=C1N/C(=N\c2ccc(F)c(Cl)c2)S/C1=C\c1ccc(Cl)cc1	8	13	Dose-dependent effect	12	Dose-dependent effect	Dose-dependent effect	Dose-dependent effect	11	12	8	12	10	inactive	9	12	11	14	9	12	12	zone of inhibition at 50 µg/mL (Staphylococcus aureus [20]): 10 mm
O=C1N/C(=N\c2cccc(Cl)c2)S/C1=C\c1cccc([N+](=O)[O-])c1	8	10	Dose-dependent effect	9	Dose-dependent effect	Dose-dependent effect	Dose-dependent effect	9	9	8	9	9	inactive	7	8	9	10	8	7	8	zone of inhibition at 50 µg/mL (Staphylococcus aureus [20]): 8 mm
